In test [1] the target is T1, TRAF2 and NCK-interacting protein kinase (Homo sapiens, UniProt Q9UKE5). Description: Inhibition of human 6His-TEV-TNIK(1 to 325) expressed in baculovirus-infected sf21 cells using LRRKtide as substrate preincubated for 30 mins followed by substrate addition and measured after 75 to 90 mins by ADP-Glo Reagent based method.
Target sequence in this assay (Q9UKE5 whole entry): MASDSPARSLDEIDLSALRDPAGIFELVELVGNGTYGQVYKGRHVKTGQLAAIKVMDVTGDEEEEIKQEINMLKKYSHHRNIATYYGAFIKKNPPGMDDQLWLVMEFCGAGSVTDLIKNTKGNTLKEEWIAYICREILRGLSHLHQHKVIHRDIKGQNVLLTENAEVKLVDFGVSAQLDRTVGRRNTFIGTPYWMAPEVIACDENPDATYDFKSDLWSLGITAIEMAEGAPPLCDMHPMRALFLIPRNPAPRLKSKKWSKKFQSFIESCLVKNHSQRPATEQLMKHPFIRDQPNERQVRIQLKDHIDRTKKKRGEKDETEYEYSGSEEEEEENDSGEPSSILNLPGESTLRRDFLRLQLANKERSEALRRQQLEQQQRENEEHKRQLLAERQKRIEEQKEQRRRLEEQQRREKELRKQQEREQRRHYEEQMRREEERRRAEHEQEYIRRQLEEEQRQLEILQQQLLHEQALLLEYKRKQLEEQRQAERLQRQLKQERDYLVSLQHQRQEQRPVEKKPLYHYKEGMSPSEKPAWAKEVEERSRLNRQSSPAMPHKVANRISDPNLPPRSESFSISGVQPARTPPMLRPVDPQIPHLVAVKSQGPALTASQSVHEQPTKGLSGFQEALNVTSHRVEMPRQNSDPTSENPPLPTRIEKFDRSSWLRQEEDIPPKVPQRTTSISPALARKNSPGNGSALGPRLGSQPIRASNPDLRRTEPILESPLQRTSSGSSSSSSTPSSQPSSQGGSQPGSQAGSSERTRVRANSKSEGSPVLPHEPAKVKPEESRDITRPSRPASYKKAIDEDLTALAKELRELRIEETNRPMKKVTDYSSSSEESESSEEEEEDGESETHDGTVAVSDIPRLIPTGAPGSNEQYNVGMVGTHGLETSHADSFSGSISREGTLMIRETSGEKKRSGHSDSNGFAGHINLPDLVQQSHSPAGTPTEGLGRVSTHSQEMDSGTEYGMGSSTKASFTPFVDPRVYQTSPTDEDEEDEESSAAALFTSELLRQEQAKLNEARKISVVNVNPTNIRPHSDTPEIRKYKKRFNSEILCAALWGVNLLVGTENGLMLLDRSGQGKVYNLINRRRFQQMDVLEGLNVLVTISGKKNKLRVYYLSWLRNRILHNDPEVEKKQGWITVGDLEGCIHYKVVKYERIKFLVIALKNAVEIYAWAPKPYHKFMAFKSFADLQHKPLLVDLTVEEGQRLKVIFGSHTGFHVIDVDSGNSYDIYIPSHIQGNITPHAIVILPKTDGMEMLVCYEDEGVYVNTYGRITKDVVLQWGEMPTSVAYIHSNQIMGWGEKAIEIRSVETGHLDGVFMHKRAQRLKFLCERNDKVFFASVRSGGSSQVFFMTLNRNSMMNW
Test [2] addresses T2, Mitogen-activated protein kinase kinase kinase kinase 4 (Homo sapiens, UniProt O95819). Description: Inhibition of human full length MAP4K4(1-1239)-G5-Avi-6His-Flag expressed in baculovirus-infected sf21 cells using His6-SMAD1 as substrate preincubated for 30 mins followed by substrate addition and measured after 120 mins by ADP-Glo Reagent based method.
Target sequence in this assay (O95819 whole entry): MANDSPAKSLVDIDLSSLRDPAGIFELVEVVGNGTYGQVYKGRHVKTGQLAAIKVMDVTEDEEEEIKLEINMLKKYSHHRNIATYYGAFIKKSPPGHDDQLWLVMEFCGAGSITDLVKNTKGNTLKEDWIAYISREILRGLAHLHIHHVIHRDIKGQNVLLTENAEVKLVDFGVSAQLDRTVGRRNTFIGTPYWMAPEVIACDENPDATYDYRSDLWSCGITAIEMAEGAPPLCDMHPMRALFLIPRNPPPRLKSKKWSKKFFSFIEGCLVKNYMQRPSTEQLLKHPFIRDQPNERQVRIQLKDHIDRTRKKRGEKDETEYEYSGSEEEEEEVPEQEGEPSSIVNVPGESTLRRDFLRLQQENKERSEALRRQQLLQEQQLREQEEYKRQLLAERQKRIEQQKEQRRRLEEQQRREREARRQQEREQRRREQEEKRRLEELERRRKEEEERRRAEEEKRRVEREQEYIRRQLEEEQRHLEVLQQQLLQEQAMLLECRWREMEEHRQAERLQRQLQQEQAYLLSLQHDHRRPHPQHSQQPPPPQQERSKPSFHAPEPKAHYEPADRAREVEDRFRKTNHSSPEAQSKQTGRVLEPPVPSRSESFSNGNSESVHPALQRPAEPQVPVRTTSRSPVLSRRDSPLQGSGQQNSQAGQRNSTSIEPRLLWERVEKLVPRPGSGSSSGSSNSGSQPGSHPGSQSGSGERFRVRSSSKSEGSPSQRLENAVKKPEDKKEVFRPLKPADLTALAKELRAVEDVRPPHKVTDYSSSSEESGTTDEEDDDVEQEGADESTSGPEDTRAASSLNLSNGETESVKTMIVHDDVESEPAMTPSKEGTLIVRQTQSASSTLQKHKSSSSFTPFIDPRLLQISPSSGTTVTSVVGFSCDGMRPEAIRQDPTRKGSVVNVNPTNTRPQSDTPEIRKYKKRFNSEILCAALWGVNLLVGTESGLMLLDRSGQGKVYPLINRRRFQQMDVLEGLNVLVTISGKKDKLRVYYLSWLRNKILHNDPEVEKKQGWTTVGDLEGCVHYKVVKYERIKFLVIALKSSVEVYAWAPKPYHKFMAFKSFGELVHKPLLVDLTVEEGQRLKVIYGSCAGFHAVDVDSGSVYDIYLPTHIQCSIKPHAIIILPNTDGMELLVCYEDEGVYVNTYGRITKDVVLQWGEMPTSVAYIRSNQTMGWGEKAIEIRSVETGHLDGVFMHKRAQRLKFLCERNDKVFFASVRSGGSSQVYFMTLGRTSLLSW
In test [3] the target is T1, TRAF2 and NCK-interacting protein kinase. Description: Inhibition of human full length TNIK in HEK293 cells co-transfected with full length SMAD1 incubated for 2 hrs by ELISA. Type of test: cell-based.
Target sequence in this assay (Q9UKE5 whole entry): as the sequence (Q9UKE5 whole entry) above
The target in test [4] is T2, Mitogen-activated protein kinase kinase kinase kinase 4. The experiment in a line: Inhibition of human 6His-TEV-SHM-MAP4K4(2 to 328)-GNS expressed in baculovirus-infected sf21 cells using LRRKtide as substrate preincubated for 30 mins followed by substrate addition and measured after 75 to 90 mins by ADP-Glo Reagent based method.
Target sequence in this assay (O95819 whole entry): as the sequence (O95819 whole entry) above
Test [5] concerns the target T1, TRAF2 and NCK-interacting protein kinase. The experiment in a line: Inhibition of human full length TNIK in HEK293 cells co-transfected with full length SMAD1 up to 30 uM incubated for 2 hrs by ELISA. The class given is cell-based.
Target sequence in this assay (Q9UKE5 whole entry, looked up): as the sequence (Q9UKE5 whole entry) above
For test [6] the target is unchanged. Description: Inhibition of human full length TNIK(1-1360)-G5-Avi-6His-Flag expressed in baculovirus-infected sf21 cells using His6-SMAD1 as substrate preincubated for 30 mins followed by substrate addition and measured after 120 mins by ADP-Glo Reagent based method.
Target sequence in this assay (Q9UKE5 whole entry): as above
The target is the same in test [7]. Description: Inhibition of human TNIK in human iPSC derived neuronal progenitor cells assessed as reduction in motif phosphorylation at 10 uM after 6 hrs with presence of okadaic acid by Western blot analysis.
Target sequence in this assay (Q9UKE5 whole entry, looked up): as the sequence (Q9UKE5 whole entry) above
For test [8], the target named is T3, Misshapen-like kinase 1 (Homo sapiens, UniProt Q8N4C8). The experiment in a line: Inhibition of human 6His-TEV-Avi-MINK1(1 to 328)-GNS expressed in baculovirus-infected sf21 cells using LRRKtide as substrate preincubated for 30 mins followed by substrate addition and measured after 75 to 90 mins by ADP-Glo Reagent based method.
For test [9], the target named is T3, Misshapen-like kinase 1. Description: Inhibition of human full length MINK1(1-1332)-G5-Avi-6His-Flag expressed in baculovirus-infected sf21 cells using His6-SMAD1 as substrate preincubated for 30 mins followed by substrate addition and measured after 120 mins by ADP-Glo Reagent based method.
Test [10] addresses T4, Myosin light chain kinase family member 4 (Homo sapiens) (UniProt Q86YV6).
T4 sequence (whole entry): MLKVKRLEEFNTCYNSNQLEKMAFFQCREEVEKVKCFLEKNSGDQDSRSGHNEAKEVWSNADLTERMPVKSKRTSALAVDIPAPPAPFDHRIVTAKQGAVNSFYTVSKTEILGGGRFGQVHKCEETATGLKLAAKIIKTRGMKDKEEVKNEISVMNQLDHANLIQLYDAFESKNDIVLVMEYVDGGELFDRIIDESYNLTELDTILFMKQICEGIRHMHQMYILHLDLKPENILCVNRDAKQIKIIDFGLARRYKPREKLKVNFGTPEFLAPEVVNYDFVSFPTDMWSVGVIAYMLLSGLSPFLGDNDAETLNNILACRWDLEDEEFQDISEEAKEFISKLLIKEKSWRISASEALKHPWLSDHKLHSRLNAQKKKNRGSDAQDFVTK
The experiment in a line: Inhibition of MYLK4 (unknown origin) at 0.1 uM relative to control.

Test [11] concerns the target AP2-associated protein kinase 1 (Homo sapiens) (UniProt Q2M2I8). The experiment in a line: Inhibition of AAK1 (unknown origin) at 0.1 uM relative to control.
In the next test the test system is Saccharomyces cerevisiae. The experiment in a line: Inhibition of Saccharomyces cerevisiae CDC7/DBF4 at 0.1 uM relative to control.
The target in test [12] is Dual specificity protein kinase CLK4 (Homo sapiens) (UniProt Q9HAZ1). Description: Inhibition of CLK4 (unknown origin) at 0.1 uM relative to control.
Test [13] deals with Leucine-rich repeat serine/threonine-protein kinase 2 (Homo sapiens) (UniProt Q5S007). The experiment in a line: Inhibition of LRRK2 (unknown origin) at 0.1 uM relative to control.
Test [14] deals with T5, Interleukin-1 receptor-associated kinase 3 (Homo sapiens) (UniProt Q9Y616).
T5 sequence (whole entry): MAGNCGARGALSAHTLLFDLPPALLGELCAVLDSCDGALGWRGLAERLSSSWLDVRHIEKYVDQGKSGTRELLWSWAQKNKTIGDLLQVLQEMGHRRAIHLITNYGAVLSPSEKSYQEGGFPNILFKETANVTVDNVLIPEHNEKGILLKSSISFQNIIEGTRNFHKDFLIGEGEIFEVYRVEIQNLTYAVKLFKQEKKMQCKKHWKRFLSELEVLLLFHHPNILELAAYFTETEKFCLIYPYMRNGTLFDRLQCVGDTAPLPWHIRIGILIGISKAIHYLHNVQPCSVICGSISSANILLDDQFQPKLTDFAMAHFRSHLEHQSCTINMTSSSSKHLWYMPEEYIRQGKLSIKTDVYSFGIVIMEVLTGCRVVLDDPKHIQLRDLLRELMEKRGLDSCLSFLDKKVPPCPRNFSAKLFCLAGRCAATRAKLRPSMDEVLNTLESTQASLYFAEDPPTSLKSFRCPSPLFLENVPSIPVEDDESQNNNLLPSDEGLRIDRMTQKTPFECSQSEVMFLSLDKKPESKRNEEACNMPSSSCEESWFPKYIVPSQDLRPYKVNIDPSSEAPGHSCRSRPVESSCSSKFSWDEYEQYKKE
Description: Inhibition of IRAK3 (unknown origin) at 0.1 uM relative to control.

Test [15] addresses Leucine-rich repeat serine/threonine-protein kinase 2 (Homo sapiens) (UniProt Q5S007). Description: Inhibition of full length LRRK2 (unknown origin) at 0.1 uM relative to control.
Test [16] deals with T2, Mitogen-activated protein kinase kinase kinase kinase 4. The experiment in a line: Inhibition of MAP4K4 (unknown origin) at 0.1 uM relative to control.

The source made the active and inactive calls. The rule behind the calls is not given here. Where only a bound is given, the exact number is not on record here.

T3 sequence (Q8N4C8 whole entry): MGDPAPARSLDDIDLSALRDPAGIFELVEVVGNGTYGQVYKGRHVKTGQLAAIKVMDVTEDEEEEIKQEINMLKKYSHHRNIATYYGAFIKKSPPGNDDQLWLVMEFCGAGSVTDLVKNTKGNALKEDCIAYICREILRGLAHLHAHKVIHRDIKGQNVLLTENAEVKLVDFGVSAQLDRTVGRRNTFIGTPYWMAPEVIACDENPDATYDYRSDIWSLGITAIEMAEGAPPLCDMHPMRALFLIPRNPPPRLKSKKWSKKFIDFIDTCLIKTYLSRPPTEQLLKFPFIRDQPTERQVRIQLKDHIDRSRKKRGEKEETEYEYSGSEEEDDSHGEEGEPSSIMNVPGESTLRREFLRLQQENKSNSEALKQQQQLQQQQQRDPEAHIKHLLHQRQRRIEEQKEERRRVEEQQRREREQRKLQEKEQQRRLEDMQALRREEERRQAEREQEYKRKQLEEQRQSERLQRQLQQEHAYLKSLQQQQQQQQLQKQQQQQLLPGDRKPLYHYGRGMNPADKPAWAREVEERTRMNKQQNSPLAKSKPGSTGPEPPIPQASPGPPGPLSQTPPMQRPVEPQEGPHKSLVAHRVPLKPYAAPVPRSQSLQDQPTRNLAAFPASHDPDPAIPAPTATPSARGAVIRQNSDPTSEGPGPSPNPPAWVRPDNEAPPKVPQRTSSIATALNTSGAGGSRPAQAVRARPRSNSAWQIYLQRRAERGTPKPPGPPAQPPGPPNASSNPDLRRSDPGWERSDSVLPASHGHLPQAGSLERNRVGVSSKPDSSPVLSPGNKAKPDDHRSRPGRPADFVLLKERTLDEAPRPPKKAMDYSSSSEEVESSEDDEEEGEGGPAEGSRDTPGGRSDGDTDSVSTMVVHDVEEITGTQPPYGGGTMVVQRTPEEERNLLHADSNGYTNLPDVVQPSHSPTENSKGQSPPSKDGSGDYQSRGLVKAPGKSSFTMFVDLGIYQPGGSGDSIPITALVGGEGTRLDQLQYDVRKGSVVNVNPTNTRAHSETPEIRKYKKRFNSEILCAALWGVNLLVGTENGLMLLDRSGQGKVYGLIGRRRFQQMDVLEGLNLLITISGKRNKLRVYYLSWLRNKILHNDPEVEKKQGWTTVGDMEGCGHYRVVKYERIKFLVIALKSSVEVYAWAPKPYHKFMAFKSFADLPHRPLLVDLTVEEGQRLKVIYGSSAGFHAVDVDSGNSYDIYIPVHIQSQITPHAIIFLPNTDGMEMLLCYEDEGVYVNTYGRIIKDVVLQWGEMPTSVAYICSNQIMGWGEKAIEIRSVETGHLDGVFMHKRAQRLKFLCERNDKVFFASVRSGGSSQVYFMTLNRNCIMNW
Dual specificity protein kinase CLK4 (Homo sapiens), sequence (Q9HAZ1 whole entry, looked up): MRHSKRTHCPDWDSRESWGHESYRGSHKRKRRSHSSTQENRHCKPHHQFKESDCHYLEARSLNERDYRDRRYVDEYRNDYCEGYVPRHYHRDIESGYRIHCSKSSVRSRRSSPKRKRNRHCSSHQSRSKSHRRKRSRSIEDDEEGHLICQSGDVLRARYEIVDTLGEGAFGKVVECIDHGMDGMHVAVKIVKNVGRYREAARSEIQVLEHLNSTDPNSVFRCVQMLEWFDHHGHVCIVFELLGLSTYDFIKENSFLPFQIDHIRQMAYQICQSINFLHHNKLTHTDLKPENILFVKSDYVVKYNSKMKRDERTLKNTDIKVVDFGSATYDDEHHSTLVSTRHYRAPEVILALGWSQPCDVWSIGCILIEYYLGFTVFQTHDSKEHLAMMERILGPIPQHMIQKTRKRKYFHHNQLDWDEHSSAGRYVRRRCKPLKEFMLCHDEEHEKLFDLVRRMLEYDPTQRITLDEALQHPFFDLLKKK

Take `Fc1cc(-c2ccc3ccncc3n2)ccn1`: the IC50 in test [1] (read-out: pIC50 (converted)) was 15800 nM; in test [2], 3980 nM; in test [3] (read-out: pIC50 (converted)), greater than 31600 nM; in test [4] (read-out: pIC50 (converted)) it was 20000 nM; in test [6], 5010 nM; at Misshapen-like kinase 1 [8] (read-out: pIC50 (converted)), 25100 nM. In addition, at Misshapen-like kinase 1 [9], the IC50 was 3980 nM. In addition, the inhibition result in [5] and in test [7] was “inactive” in each case.

For `CC(C)NC(=O)c1ccc(-c2cnc(N)c(-c3ccc(C#N)cc3)c2)cc1`, the IC50 in test [1] (read-out: pIC50 (converted)) is 79.4 nM; in [2] it was 25.1 nM; in test [3] (read-out: IC50), 930 nM; in test [3] (read-out: pIC50 (converted)), 1260 nM; in test [4] (read-out: pIC50 (converted)) it was 12.6 nM; in test [6], 39.8 nM. Also, the IC50 was 126 nM on Misshapen-like kinase 1 [8] (read-out: pIC50 (converted)) and 39.8 nM against Misshapen-like kinase 1 [9]. Further, the inhibition entry in test [7] was “Active”.

Turning to `CS(=O)(=O)c1ccc(-c2cc(-c3ccc(O)cc3)cnc2N)cc1`, the IC50 in test [1] (read-out: pIC50 (converted)) was 10 nM; in test [3] (read-out: IC50) it was 470 nM; in test [6] it was 10 nM; on Misshapen-like kinase 1 [8] (read-out: pIC50 (converted)), 39.8 nM; at Misshapen-like kinase 1 [9], 15.8 nM. Further, in [7], the inhibition result is “Active”.

With `CC(C)NC(=O)c1ccc(-c2cnc(N(C)C)c(-c3ccc(C#N)cc3)c2)cc1`, the IC50 was 25100 nM in test [1] (read-out: pIC50 (converted)); 50100 nM in [2]; greater than 31600 nM in test [3] (read-out: pIC50 (converted)); 20000 nM in [4] (read-out: pIC50 (converted)); 25100 nM in test [6]; 25100 nM on Misshapen-like kinase 1 [8] (read-out: pIC50 (converted)). Besides, the IC50 against Misshapen-like kinase 1 [9] was 63100 nM. The inhibition entry in test [5] and in test [7] was “inactive” each time.

In the case of `Nc1ncnc2ccc(-c3ccnc(F)c3)nc12`, the IC50 in test [1] (read-out: IC50) is 150 to 200 nM; in test [1] (read-out: pIC50 (converted)), 158 nM; in test [4] (read-out: IC50), 150 to 200 nM; in [4] (read-out: pIC50 (converted)) it was 158 nM; at Misshapen-like kinase 1 [8] (read-out: IC50), 150 to 200 nM; at Misshapen-like kinase 1 [8] (read-out: pIC50 (converted)) it was 200 nM.

With `Nc1ncc(Br)c2ccc(-c3ccnc(F)c3)nc12`, the IC50 in test [1] (read-out: pIC50 (converted)) was 12.6 nM; in test [2] it was 20 nM; in test [3] (read-out: IC50), 1130 nM; in test [4] (read-out: pIC50 (converted)), 31.6 nM; in [6] it was 7.94 nM; at Misshapen-like kinase 1 [8] (read-out: pIC50 (converted)), 50.1 nM. For the same molecule, the IC50 on Misshapen-like kinase 1 [9] is 12.6 nM. In addition, the inhibition was determined as 73% in test [10]; 95% in test [11]; 56% with Saccharomyces cerevisiae; 51% in [12]; 54% in [13]; 90% in test [14]. Besides, the inhibition in [15] was found to be 61%; in [16], 99%. In addition, the inhibition entry in [7] was “Active”.

For the molecule `CC(C)(O)c1cnc(N)c2nc(-c3ccnc(F)c3)ccc12`, the results for the IC50 (in [1] (read-out: pIC50 (converted)); in [4] (read-out: pIC50 (converted)); at Misshapen-like kinase 1 [8] (read-out: pIC50 (converted))) were 126 nM, 158 nM and 200 nM, respectively.

For `CN(C)c1ncc(-c2ccc(O)cc2)cc1-c1ccc(S(C)(=O)=O)cc1`, the IC50 is 3980 nM in test [1] (read-out: pIC50 (converted)); 7940 nM in test [2]; greater than 31600 nM in test [3] (read-out: pIC50 (converted)); 15800 nM in [4] (read-out: pIC50 (converted)); 3980 nM in test [6]; 20000 nM at Misshapen-like kinase 1 [8] (read-out: pIC50 (converted)). The molecule further had an IC50 on Misshapen-like kinase 1 [9] of 6310 nM. Also, the inhibition result in test [5] and in test [7] was “inactive” throughout.
